From patent US20200405697A1, “Antitumor Agent” (Taiho Pharmaceutical Co., Ltd, priority 2017, published 2020)

Assays:
[1] = test system: MV-4-11 (Human blood cancer cell line); test: Effect of combination of sulfonamide compound and other antitumor agent (CellTiter-Glo, combination index): MV-4-11
Procedure: Each cell line was seeded at 90 L/well to a 96-well culture plate (Thermo Fisher Scientific, Inc.) according to the above tables. The cell-seeded plate was cultured in an incubator set to 37° C. and 500 CO2. On the day following seeding, varying concentrations of the sulfonamide compound and the other antitumor agent were added in combination to the cells. […] The serial dilutions of each compound, or DW was added at 5μL/well to the plate such that each compound and DW, or the sulfonamide compound and the other antitumor agent were combined. […] The plate after the addition was cultured at 37° C. for 3 days under 5% CO2 conditions.
Three days later, CellTiter-Glo(R) 2.0 Reagent (Promega Corporation) was added at 100 μL/well, and the amount of luminescence was measured using a plate reader EnSpire(R) Multimode Plate Reader (PerkinElmer Co., Ltd.).
An average value from 3 wells was calculated as to each drug condition from the obtained data, and cell survival rate normalized against control wells supplemented with the vehicle (DW) was calculated. A Fa (fractional inhibition) value was calculated by subtracting the cell survival rate from 1.

[2] = test system: A549 (Human lung cancer cell line); test: Effect of combination of sulfonamide compound and other antitumor agent (CellTiter-Glo, combination index): A549
[3] = Example Compound 5 164 nM + Guadecitabine 11.8 nM
[4] = Example Compound 5 247 nM + Guadecitabine 17.8 nM
[5] = Example Compound 5 370 nM + Guadecitabine 26.7 nM
[6] = Example Compound 5 555 nM + Guadecitabine 40.1 nM
[7] = Example Compound 5 833 nM + Guadecitabine 60.2 nM
[8] = Example Compound 5 1250 nM + Guadecitabine 90.3 nM
[9] = Example Compound 14 519 nM + Guadecitabine 17.8 nM
[10] = Example Compound 14 778 nM + Guadecitabine 26.7 nM
[11] = Example Compound 14 1170 nM + Guadecitabine 40.2 nM
[12] = Example Compound 14 1750 nM + Guadecitabine 60.1 nM
[13] = Example Compound 14 2630 nM + Guadecitabine 90.3 nM
[14] = Example Compound 209A 96.6 nM + Guadecitabine 17.8 nM
[15] = Example Compound 209A 217 nM + Guadecitabine 40.0 nM
[16] = Example Compound 209A 326 nM + Guadecitabine 60.1 nM
[17] = Example Compound 235A 90.1 nM + Guadecitabine 11.9 nM
[18] = Example Compound 235A 135 nM + Guadecitabine 17.8 nM
[19] = Example Compound 235A 304 nM + Guadecitabine 40.1 nM
[20] = Example Compound 235A 456 nM + Guadecitabine 60.1 nM
[21] = Example Compound 235A 684 nM + Guadecitabine […]
[22] = Example Compound 14 1310 nM + Guadecitabine 326 nM
[23] = Example Compound 14 1970 nM + Guadecitabine 490 nM
[24] = Example Compound 14 2950 nM + Guadecitabine 734 nM
[25] = Example Compound 14 4420 nM + Guadecitabine 1100 nM
[26] = Example Compound 209A 635 nM + Guadecitabine 734 nM
[27] = Example Compound 235A 520 nM + Guadecitabine 469 nM
[28] = Example Compound 235A 780 nM + Guadecitabine 704 nM
[29] = Example Compound 235A 1170 nM + Guadecitabine 1060 nM
[30] = Example Compound 5 247 nM + Cytarabine 175 nM
[31] = Example Compound 5 555 nM + Cytarabine 393 nM
[32] = Example Compound 5 833 nM + Cytarabine 590 nM
[33] = Example Compound 5 1250 nM + Cytarabine 885 nM
[34] = Example Compound 14 519 nM + Cytarabine 175 nM
[35] = Example Compound 14 1170 nM + Cytarabine 394 nM
[36] = Example Compound 14 1750 nM + Cytarabine 589 nM
[37] = Example Compound 14 2630 nM + Cytarabine 886 nM
[38] = Example Compound 209A 96.6 nM + Cytarabine 175 nM
[39] = Example Compound 209A 217 nM + Cytarabine 393 nM
[40] = Example Compound 209A 326 nM + Cytarabine 590 nM
[41] = Example Compound 235A 90.1 nM + Cytarabine 116 nM
[42] = Example Compound 235A 135 nM + Cytarabine 174 nM
[43] = Example Compound 235A 304 nM + Cytarabine 393 nM
[44] = Example Compound 235A 456 nM + Cytarabine 589 nM
[45] = Example Compound 235A 684 nM + Cytarabine 884 nM
[46] = Example Compound 14 874 nM + Cytarabine 72.2 nM
[47] = Example Compound 14 1310 nM + Cytarabine 108 nM
[48] = Example Compound 14 1970 nM + Cytarabine 163 nM
[49] = Example Compound 14 2950 nM + Cytarabine 244 nM
[50] = Example Compound 14 4420 nM + Cytarabine 365 nM
[51] = Example Compound 209A 188 nM + Cytarabine 72.2 nM
[52] = Example Compound 209A 282 nM + Cytarabine 108 nM
[53] = Example Compound 209A 635 nM + Cytarabine 244 nM
[54] = Example Compound 209A 952 nM + Cytarabine 365 nM
[55] = Example Compound 235A 780 nM + Cytarabine 111 nM
[56] = Example Compound 235A 1170 nM + Cytarabine 166 nM
[57] = Example Compound 235A 1750 nM + Cytarabine 249 nM
[58] = Example Compound 5 370 nM + Fludarabine nucleoside 6150 nM
[59] = Example Compound 5 555 nM + Fludarabine nucleoside 9220 nM
[60] = Example Compound 14 778 nM + Fludarabine nucleoside 6150 nM
[61] = Example Compound 14 1170 nM + Fludarabine nucleoside 9250 nM
[62] = Example Compound 235A 304 nM + Fludarabine nucleoside 9220 nM
[63] = Example Compound 14 874 nM + Fludarabine nucleoside 5930 nM
[64] = Example Compound 14 1310 nM + Fludarabine nucleoside 8890 nM
[65] = Example Compound 14 1970 nM + Fludarabine nucleoside 13400 nM
[66] = Example Compound 14 2950 nM + Fludarabine nucleoside 20000 nM
[67] = Example Compound 209A 188 nM + Fludarabine nucleoside 5930 nM
[68] = Example Compound 209A 282 nM + Fludarabine nucleoside 8890 nM
[69] = Example Compound 209A 635 nM + Fludarabine nucleoside 20000 nM
[70] = Example Compound 235A 520 nM + Fludarabine nucleoside 8870 nM
[71] = Example Compound 235A 780 nM + Fludarabine nucleoside 13300 nM
[72] = Example Compound 235A 1170 nM + Fludarabine nucleoside 20000 nM
[73] = Example Compound 235A 1750 nM + Fludarabine nucleoside 29900 nM

Compound `Nc1ncn([C@H]2C[C@H](OP(=O)(O)OC[C@H]3O[C@@H](n4cnc5c(=O)[nH]c(N)nc54)C[C@@H]3O)[C@@H](CO)O2)c(=O)n1` [Guadecitabine, guadecitabine] has a CI value [1, 3] of 0.640, a Fa value [1, 3] of 0.2498 and a CI value [1, 4] of 0.683. It also gave a Fa value [1, 4] of 0.3527, a CI value [1, 5] of 0.727 and a Fa value [1, 5] of 0.4905. The CI value [1, 6] was 0.690, the Fa value [1, 6] was 0.7205 and the CI value [1, 7] was 0.673. It also gave a Fa value [1, 7] of 0.9023, a CI value [1, 8] of 0.557 and a Fa value [1, 8] of 0.9892. The CI value [1, 9] was 0.767, the Fa value [1, 9] was 0.3318 and the CI value [1, 10] was 0.844. It also gave a Fa value [1, 10] of 0.4449, a CI value [1, 11] of 0.797 and a Fa value [1, 11] of 0.6448. It also gave a CI value [1, 12] of 0.668, a Fa value [1, 12] of 0.8620 and a CI value [1, 13] of 0.545. It also gave a Fa value [1, 13] of 0.9686, a CI value [1, 14] of 0.766 and a Fa value [1, 14] of 0.4376. For the same compound, the CI value [1, 15] was 0.753, the Fa value [1, 15] was 0.8301 and the CI value [1, 16] was 0.631. For the same compound, the Fa value [1, 16] was 0.9675, the CI value [1, 17] was 0.633 and the Fa value [1, 17] was 0.2567. For the same compound, the CI value [1, 18] was 0.638, the Fa value [1, 18] was 0.4131 and the CI value [1, 19] was 0.689. For the same compound, the Fa value [1, 19] was 0.7974, the CI value [1, 20] was 0.617 and the Fa value [1, 20] was 0.9524. The CI value [1, 21] was 0.544, the Fa value [1, 21] was 0.9930 and the CI value [2, 22] was 0.561. For the same compound, the Fa value [2, 22] was 0.2913, the CI value [2, 23] was 0.503 and the Fa value [2, 23] was 0.4560. The CI value [2, 24] was 0.582, the Fa value [2, 24] was 0.5553 and the CI value [2, 25] was 0.620. The Fa value [2, 25] was 0.6875, the CI value [2, 26] was 0.522 and the Fa value [2, 26] was 0.6179. For the same compound, the CI value [2, 27] was 0.568, the Fa value [2, 27] was 0.2878 and the CI value [2, 28] was 0.583. For the same compound, the Fa value [2, 28] was 0.4237, the CI value [2, 29] was 0.670 and the Fa value [2, 29] was 0.5377.

`Nc1ccn([C@@H]2O[C@H](CO)[C@@H](O)[C@@H]2O)c(=O)n1` [Cytarabine, cytarabine] showed a CI value [1, 30] of 0.638, a Fa value [1, 30] of 0.4093 and a CI value [1, 31] of 0.553. It also gave a Fa value [1, 31] of 0.9212, a CI value [1, 32] of 0.366 and a Fa value [1, 32] of 0.9948. It also gave a CI value [1, 33] of 0.386, a Fa value [1, 33] of 0.9986 and a CI value [1, 34] of 0.766. For the same compound, the Fa value [1, 34] was 0.2908, the CI value [1, 35] was 0.599 and the Fa value [1, 35] was 0.8743. The CI value [1, 36] was 0.387, the Fa value [1, 36] was 0.9860 and the CI value [1, 37] was 0.269. For the same compound, the Fa value [1, 37] was 0.9984, the CI value [1, 38] was 0.739 and the Fa value [1, 38] was 0.5055. For the same compound, the CI value [1, 39] was 0.510, the Fa value [1, 39] was 0.9736 and the CI value [1, 40] was 0.330. It also gave a Fa value [1, 40] of 0.9981, a CI value [1, 41] of 0.740 and a Fa value [1, 41] of 0.1704. It also gave a CI value [1, 42] of 0.645, a Fa value [1, 42] of 0.4683 and a CI value [1, 43] of 0.510. It also gave a Fa value [1, 43] of 0.9522, a CI value [1, 44] of 0.365 and a Fa value [1, 44] of 0.9958. It also gave a CI value [1, 45] of 0.374, a Fa value [1, 45] of 0.9989 and a CI value [2, 46] of 0.670. For the same compound, the Fa value [2, 46] was 0.3745, the CI value [2, 47] was 0.790 and the Fa value [2, 47] was 0.4356. The CI value [2, 48] was 0.616, the Fa value [2, 48] was 0.6170 and the CI value [2, 49] was 0.498. For the same compound, the Fa value [2, 49] was 0.7754, the CI value [2, 50] was 0.490 and the Fa value [2, 50] was 0.8591. The CI value [2, 51] was 0.777, the Fa value [2, 51] was 0.3588 and the CI value [2, 52] was 0.759. For the same compound, the Fa value [2, 52] was 0.4675, the CI value [2, 53] was 0.474 and the Fa value [2, 53] was 0.7994. For the same compound, the CI value [2, 54] was 0.574, the Fa value [2, 54] was 0.8410 and the CI value [2, 55] was 0.878. For the same compound, the Fa value [2, 55] was 0.4015, the CI value [2, 56] was 0.693 and the Fa value [2, 56] was 0.6327. For the same compound, the CI value [2, 57] was 0.581 and the Fa value [2, 57] was 0.8184.

`Nc1nc(F)nc2c1ncn2[C@@H]1O[C@H](CO)[C@@H](O)[C@@H]1O` [Fludarabine nucleoside, fludarabine nucleoside] was tested, and the CI value [1, 58] was 0.739, the Fa value [1, 58] was 0.6600 and the CI value [1, 59] was 0.293. The Fa value [1, 59] was 0.9981, the CI value [1, 60] was 0.786 and the Fa value [1, 60] was 0.5954. The CI value [1, 61] was 0.296, the Fa value [1, 61] was 0.9984 and the CI value [1, 62] was 0.320. It also gave a Fa value [1, 62] of 0.9988, a CI value [2, 63] of 0.549 and a Fa value [2, 63] of 0.3063. It also gave a CI value [2, 64] of 0.387, a Fa value [2, 64] of 0.7007 and a CI value [2, 65] of 0.377. The Fa value [2, 65] was 0.8610, the CI value [2, 66] was 0.537 and the Fa value [2, 66] was 0.8736. It also gave a CI value [2, 67] of 0.558, a Fa value [2, 67] of 0.3666 and a CI value [2, 68] of 0.386. For the same compound, the Fa value [2, 68] was 0.7059, the CI value [2, 69] was 0.515 and the Fa value [2, 69] was 0.8634. For the same compound, the CI value [2, 70] was 0.568, the Fa value [2, 70] was 0.4460 and the CI value [2, 71] was 0.423. For the same compound, the Fa value [2, 71] was 0.7798, the CI value [2, 72] was 0.504 and the Fa value [2, 72] was 0.8525. The CI value [2, 73] was 0.734 and the Fa value [2, 73] was 0.8595.
